Assays:
Format in all cases: in vitro ADME
[1] = In vitro binding to human plasma proteins (Study LPR1082); conditions: mainly bound to α1-acid glycoprotein, read-out: fu (unbound fraction in plasma)
Description: The physicochemical properties and blood binding parameters of fedratinib including molecular weight, logP, pKa, fu, and B/P were experimentally measured and listed in Table 1.

OCT1 = molecular target: T1, OCT1 (Homo sapiens, UniProt O15245); assay: OCT1 inhibition, CHO-hOCT1 cells (TRI0013)
T1 construct: expressed in transfected cells; host or cells: CHO^Fi-hOCT1
T1 sequence (O15245 1-554): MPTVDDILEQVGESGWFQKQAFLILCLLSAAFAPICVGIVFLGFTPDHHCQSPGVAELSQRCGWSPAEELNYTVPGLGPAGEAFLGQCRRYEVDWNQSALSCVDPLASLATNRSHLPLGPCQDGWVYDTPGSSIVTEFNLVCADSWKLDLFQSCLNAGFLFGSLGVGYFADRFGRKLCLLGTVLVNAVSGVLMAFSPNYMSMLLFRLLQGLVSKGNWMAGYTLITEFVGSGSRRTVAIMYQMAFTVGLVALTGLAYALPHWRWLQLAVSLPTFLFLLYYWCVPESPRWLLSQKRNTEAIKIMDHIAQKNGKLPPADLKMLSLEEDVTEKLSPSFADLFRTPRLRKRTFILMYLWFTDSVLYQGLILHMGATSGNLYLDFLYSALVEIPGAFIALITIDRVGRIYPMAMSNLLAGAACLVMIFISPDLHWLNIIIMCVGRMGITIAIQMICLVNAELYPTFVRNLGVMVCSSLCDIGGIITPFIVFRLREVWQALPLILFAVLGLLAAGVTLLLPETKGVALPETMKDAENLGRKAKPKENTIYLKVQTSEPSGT
Description: (§1) The reported IC50 values were converted to Ki values using the Cheng-Prusoff equation [10]:
(§2) The transporter inhibition parameters (Ki) for fedratinib were derived from the experimentally determined IC50 values using the Cheng-Prusoff equation, i.e., Ki = IC50/(1+[S]/Km) with the substrate concentrations ([S]) reported in the experimental studies and the substrate Km values collected from literature, as summarized in Table 13.

OCT2 = molecular target: T2, OCT2 (Homo sapiens, UniProt O15244); assay: OCT2 inhibition, CHO-hOCT2 cells (TRI0013); set-up: expressed in transfected cells; host or cells: CHO^Fi-hOCT2
T2 sequence (O15244 1-555): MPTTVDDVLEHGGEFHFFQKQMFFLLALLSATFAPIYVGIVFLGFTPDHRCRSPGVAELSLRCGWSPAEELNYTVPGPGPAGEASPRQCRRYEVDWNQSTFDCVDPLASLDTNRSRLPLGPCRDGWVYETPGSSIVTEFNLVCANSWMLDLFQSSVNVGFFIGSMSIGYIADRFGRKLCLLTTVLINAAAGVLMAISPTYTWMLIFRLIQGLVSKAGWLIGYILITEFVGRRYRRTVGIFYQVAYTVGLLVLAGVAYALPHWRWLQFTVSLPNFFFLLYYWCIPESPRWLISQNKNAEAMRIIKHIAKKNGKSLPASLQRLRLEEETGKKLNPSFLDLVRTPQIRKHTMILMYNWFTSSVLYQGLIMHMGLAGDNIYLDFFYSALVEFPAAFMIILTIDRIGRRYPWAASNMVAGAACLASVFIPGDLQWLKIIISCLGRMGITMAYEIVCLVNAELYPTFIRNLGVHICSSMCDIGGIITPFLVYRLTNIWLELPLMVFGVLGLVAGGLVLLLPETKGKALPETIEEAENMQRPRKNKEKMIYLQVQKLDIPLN
Description: as §1, §2

OATP1B3 = molecular target: T3, OATP1B3 (Homo sapiens, UniProt Q9NPD5); assay: OATP1B3 inhibition, HEK-hOATP1B3 cells (TRE0075); set-up: expressed in transfected cells; host or cells: HEK^TR-hOATP1B3
T3 sequence (Q9NPD5 1-702): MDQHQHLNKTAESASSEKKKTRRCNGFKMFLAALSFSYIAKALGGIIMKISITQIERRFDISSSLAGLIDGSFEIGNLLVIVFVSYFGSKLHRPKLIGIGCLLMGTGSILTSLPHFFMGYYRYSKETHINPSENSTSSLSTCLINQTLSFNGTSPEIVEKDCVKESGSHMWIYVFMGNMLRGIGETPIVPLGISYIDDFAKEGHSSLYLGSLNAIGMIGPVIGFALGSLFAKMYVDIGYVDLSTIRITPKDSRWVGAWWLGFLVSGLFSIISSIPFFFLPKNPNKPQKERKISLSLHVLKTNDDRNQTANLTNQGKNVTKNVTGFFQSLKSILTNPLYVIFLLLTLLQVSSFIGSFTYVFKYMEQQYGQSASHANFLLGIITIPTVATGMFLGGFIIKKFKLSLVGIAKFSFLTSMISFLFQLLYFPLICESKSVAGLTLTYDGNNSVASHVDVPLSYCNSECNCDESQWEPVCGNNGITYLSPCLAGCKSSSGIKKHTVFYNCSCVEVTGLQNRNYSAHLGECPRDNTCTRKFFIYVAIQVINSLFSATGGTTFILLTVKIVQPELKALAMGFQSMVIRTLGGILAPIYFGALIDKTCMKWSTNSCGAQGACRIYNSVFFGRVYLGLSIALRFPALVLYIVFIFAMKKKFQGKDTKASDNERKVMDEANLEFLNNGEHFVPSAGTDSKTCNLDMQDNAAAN
Description: as §1, §2

Cc1cnc(Nc2ccc(OCCN3CCCC3)cc2)nc1Nc1cccc(S(=O)(=O)NC(C)(C)C)c1 [Fedratinib] gave a fraction unbound [1] of 0.05, a Ki (OCT1; from IC50 by Cheng-Prusoff, probe TEA) of 5.59 µM and an IC50 (OCT1; probe TEA 25 μM) of 6.06 µM. The Ki (OCT2; from IC50 by Cheng-Prusoff, probe metformin) was 0.71 µM, the IC50 (OCT2; probe metformin 25 μM) was 0.78 µM and the Ki (OATP1B3; from IC50 by Cheng-Prusoff, probe CCK8) was 8.4 µM. It also gave an IC50 (OATP1B3; probe CCK8 0.5 μM) of 9.51 µM.

Source: PMC7515950, “Physiologically based pharmacokinetic modeling to assess metabolic drug–drug interaction risks and inform the drug label for fedratinib” (Cancer Chemotherapy and Pharmacology, 2020)
